Values joined by “and” are separate entries in the source; they are usually repeats but may differ in a detail not shown here. Equal values may be shown once.
System: E. coli dihydrofolate reductase (DHFR) position 39
Test: Selenocysteine incorporation into DHFR P39X by intact mass spectrometry
Design: species or system E. coli RTΔA.2
Settings: for serine incorporation in DHFR: mass spectrometry; for selenocysteine incorporation efficiency in DHFR: peak areas of the mass spectrum
Excerpt: To further enhance the efficiency of selenocysteine incorporation, a number of steps were taken to improve the levels of Sec-tRNA^Sec relative to Ser-tRNA^Sec, including increasing the level of SelA, decreasing the gene dose of tRNA^SecUx, and co-expressing a phosphoseryl-tRNA^Sec kinase (see Example 2 below). […] In order to further validate selenocysteine incorporation, the Pseudomonas aeruginosa metalloprotein azurin was also expressed with its essential cysteine (C112) replaced by selenocysteine and the human selenoprotein cellular glutathione peroxidase (GPx-1) (FIGS. 6a-6e and 8a-8b). For azurin, this chemical change had previously proven possible only through expressed protein ligation,^22 the essential cysteine could now be biologically replaced with selenocysteine with good efficiency as measured by mass spectrometry of the intact protein.
RTΔA.2 transformants containing pDHFR-P39X-AU and pRSF-eSelAK were cultured ON in LB medium containing 100 μg·mL^−1 ampicillin, 50 μg·mL^−1 kanamycin and 1 μM Na2SeO3. Overnight cultures were diluted 1/500 in a final volume of 2 L LB medium containing 50 μg·mL^−1 ampicillin, 25 μg·mL^−1 kanamycin and 5 μM Na2SeO3 and incubated with agitation for 24 hours at 37° C. Cells were harvested by centrifugation at 8000×g for 10 min and resuspended in 20 mL of wash buffer (100 mM Tris, 150 mM NaCl, 1 mM EDTA at pH 8.0) with protease inhibitor cocktail (cOmplete, mini EDTA free, Roche) and lysozyme at 1 mg·mL^−1. Following a 20 min incubation at 4° C. cells were lysed by sonication (Model 500, Fisher Scientific) and clarified by three times by centrifugation at 35000×g for 30 min. Lysate was passed through a 0.2 µm filter and seleno-DHFR recovered using Strep-Tactin affinity chromatography following the manufacturer's instructions (GE Healthcare). Eluate was concentrated to 3 mL and dialyzed against 50 mM NH4Ac pH 6.5 prior to the isolation of seleno-DHFR by size exclusion FPLC (ÄKTA, GE Healthcare). Seleno-DHFR was produced using tRNA^SecUx with a yield of 68 μg·L^−1 and 100% incorporation efficiency. Seleno-DHFR was produced using tRNA^UTu with a yield of 131 μg·L^−1 and 38.1% incorporation efficiency. DHFR containing serine at position 39 was produced with a yield of 225 μg·L^−1.
Intact protein samples were analyzed using methods described previously (Ellefson et al., 2014). Azurin, DHFR and GPx-1 samples were buffer exchanged into LC-MS grade water using 10 kDa molecular weight cutoff filters. […] UVPD mass spectra were also deconvoluted using Xtract and then analyzed using ProsightPC 3.0. […] Incorporation efficiencies were calculated by dividing the area of the modified protein peak by the summed areas of the unmodified protein peak and the modified protein peak. […]

| Substance | serine incorporation in DHFR | selenocysteine incorporation efficiency in DHFR |
| --- | --- | --- |
| tRNA^SecUx: Evolved E. coli tRNA^Sec variant with the G7-C66:U49-G65:C50-U64 antideterminant sequence and CUA anticodon | no detectable background | ~100% |
| tRNA^UTu (GGAAGATGTGGCCGAGCGGTTGAAGGCACCGGT; expressed or natural sequence) | 62% | 38% and 38.1% |
